Results as given in the NIST ThermoML archive (doi:10.1016/j.jct.2017.06.008).
± gives the expanded uncertainty stated by the source.

Assays:
[1] = refractive index (Na D-line) (dimensionless); xn = mol fraction of the nth substance listed; conditions: 100 kPa, Liquid, Standard Abbe refractometry
[2] = xn = mol fraction of the nth substance listed; conditions: 100 kPa, Liquid; for speed of sound: Frequency=3 MHz, Single path-length method; for mass density: Vibrating tube method

CC(=O)CC(C)C [4-methylpentan-2-one] + CC(C)=O
Conditions | mass density, 293.15 K [kg/m3] | mass density, 303.15 K [kg/m3] | mass density, 313.15 K [kg/m3] | refractive index, 293.15 K | refractive index, 303.15 K | refractive index, 313.15 K | speed of sound, 293.15 K [m/s] | speed of sound, 303.15 K [m/s] | speed of sound, 313.15 K [m/s]
[1], x1 = 0.1004 | – | – | – | 1.365 ± 0.005 | 1.359 ± 0.005 | 1.354 ± 0.005 | – | – | –
[1], x1 = 0.1992 | – | – | – | 1.37 ± 0.005 | 1.364 ± 0.005 | 1.359 ± 0.005 | – | – | –
[1], x1 = 0.3012 | – | – | – | 1.374 ± 0.005 | 1.369 ± 0.005 | 1.365 ± 0.005 | – | – | –
[1], x1 = 0.396 | – | – | – | 1.378 ± 0.005 | 1.373 ± 0.005 | 1.368 ± 0.005 | – | – | –
[1], x1 = 0.5005 | – | – | – | 1.382 ± 0.005 | 1.377 ± 0.005 | 1.372 ± 0.005 | – | – | –
[1], x1 = 0.6912 | – | – | – | 1.388 ± 0.005 | 1.383 ± 0.005 | 1.379 ± 0.005 | – | – | –
[1], x1 = 0.7996 | – | – | – | 1.391 ± 0.005 | 1.386 ± 0.005 | 1.382 ± 0.005 | – | – | –
[1], x1 = 0.8992 | – | – | – | 1.394 ± 0.005 | 1.389 ± 0.005 | 1.384 ± 0.005 | – | – | –
[1], x1 = 1 | – | – | – | 1.396 ± 0.005 | 1.391 ± 0.005 | 1.387 ± 0.005 | – | – | –
[2], x1 = 0.1004 | 791 ± 3 | 780 ± 3 | 769 ± 3 | – | – | – | 1185.7 ± 1.4 | 1140.9 ± 1.4 | 1096.8 ± 1.4
[2], x1 = 0.1992 | 793 ± 3 | 782 ± 3 | 771 ± 3 | – | – | – | 1186.8 ± 1.4 | 1143 ± 1.4 | 1099.4 ± 1.4
[2], x1 = 0.3012 | 794 ± 3 | 783 ± 3 | 773 ± 3 | – | – | – | 1189.2 ± 1.4 | 1145.9 ± 1.4 | 1102.9 ± 1.4
[2], x1 = 0.396 | 795 ± 3 | 785 ± 3 | 774 ± 3 | – | – | – | 1191.8 ± 1.5 | 1149 ± 1.5 | 1106.4 ± 1.5
[2], x1 = 0.5005 | 796 ± 3 | 786 ± 3 | 776 ± 3 | – | – | – | 1194.8 ± 1.5 | 1152.4 ± 1.5 | 1110.4 ± 1.5
[2], x1 = 0.6912 | 798 ± 3 | 788 ± 3 | 779 ± 3 | – | – | – | 1201.1 ± 1.5 | 1159.5 ± 1.5 | 1118.3 ± 1.5
[2], x1 = 0.7996 | 799 ± 3 | 790 ± 3 | 780 ± 3 | – | – | – | 1205.2 ± 1.6 | 1163.6 ± 1.6 | 1122.9 ± 1.6
[2], x1 = 0.8992 | 799 ± 3 | 791 ± 3 | 781 ± 3 | – | – | – | 1208 ± 1.6 | 1167.2 ± 1.6 | 1126.9 ± 1.6
[2], x1 = 1 | 800 ± 3 | 792 ± 3 | 782 ± 3 | – | – | – | 1212.3 ± 1.6 | 1171.4 ± 1.6 | 1131.4 ± 1.6

CC(=O)CC(C)C [4-methylpentan-2-one] + C[S+](C)[O-]
Conditions | mass density, 293.15 K [kg/m3] | mass density, 303.15 K [kg/m3] | mass density, 313.15 K [kg/m3] | refractive index, 293.15 K | refractive index, 303.15 K | refractive index, 313.15 K | speed of sound, 293.15 K [m/s] | speed of sound, 303.15 K [m/s] | speed of sound, 313.15 K [m/s]
[1], x1 = 0.1002 | – | – | – | 1.466 ± 0.005 | 1.462 ± 0.005 | 1.458 ± 0.005 | – | – | –
[1], x1 = 0.2004 | – | – | – | 1.455 ± 0.005 | 1.451 ± 0.005 | 1.446 ± 0.005 | – | – | –
[1], x1 = 0.3004 | – | – | – | 1.445 ± 0.005 | 1.441 ± 0.005 | 1.436 ± 0.005 | – | – | –
[1], x1 = 0.4007 | – | – | – | 1.436 ± 0.005 | 1.432 ± 0.005 | 1.427 ± 0.005 | – | – | –
[1], x1 = 0.4982 | – | – | – | 1.428 ± 0.005 | 1.423 ± 0.005 | 1.419 ± 0.005 | – | – | –
[1], x1 = 0.5999 | – | – | – | 1.42 ± 0.005 | 1.416 ± 0.005 | 1.411 ± 0.005 | – | – | –
[1], x1 = 0.6992 | – | – | – | 1.413 ± 0.005 | 1.409 ± 0.005 | 1.404 ± 0.005 | – | – | –
[1], x1 = 0.7995 | – | – | – | 1.407 ± 0.005 | 1.402 ± 0.005 | 1.398 ± 0.005 | – | – | –
[1], x1 = 0.8981 | – | – | – | 1.401 ± 0.005 | 1.397 ± 0.005 | 1.392 ± 0.005 | – | – | –
[1], x1 = 1 | – | – | – | 1.396 ± 0.005 | 1.391 ± 0.005 | 1.387 ± 0.005 | – | – | –
[2], x1 = 0.1002 | 1052 ± 3 | 1043 ± 3 | 1033 ± 3 | – | – | – | 1453.8 ± 1.4 | 1418.9 ± 1.4 | 1384.7 ± 1.4
[2], x1 = 0.2004 | 1010 ± 3 | 1001 ± 3 | 991 ± 3 | – | – | – | 1409.2 ± 1.4 | 1373.8 ± 1.4 | 1339.2 ± 1.4
[2], x1 = 0.3004 | 973 ± 3 | 964 ± 3 | 954 ± 3 | – | – | – | 1371.9 ± 1.4 | 1336 ± 1.4 | 1300.8 ± 1.4
[2], x1 = 0.4007 | 940 ± 3 | 931 ± 3 | 921 ± 3 | – | – | – | 1338.7 ± 1.5 | 1302.9 ± 1.5 | 1267.1 ± 1.5
[2], x1 = 0.4982 | 912 ± 3 | 902 ± 3 | 893 ± 3 | – | – | – | 1311.8 ± 1.5 | 1275.3 ± 1.5 | 1238.9 ± 1.5
[2], x1 = 0.5999 | 885 ± 3 | 875 ± 3 | 866 ± 3 | – | – | – | 1287.1 ± 1.5 | 1249.8 ± 1.5 | 1212.7 ± 1.5
[2], x1 = 0.6992 | 861 ± 3 | 851 ± 3 | 842 ± 3 | – | – | – | 1266.1 ± 1.5 | 1227.9 ± 1.5 | 1190 ± 1.5
[2], x1 = 0.7995 | 839 ± 3 | 830 ± 3 | 820 ± 3 | – | – | – | 1246.5 ± 1.6 | 1207.5 ± 1.6 | 1168.9 ± 1.6
[2], x1 = 0.8981 | 819 ± 3 | 810 ± 3 | 801 ± 3 | – | – | – | 1229.3 ± 1.6 | 1189.2 ± 1.6 | 1149.9 ± 1.6
[2], x1 = 1 | 801 ± 3 | 792 ± 3 | 782 ± 3 | – | – | – | 1212.3 ± 1.6 | 1171.4 ± 1.6 | 1131.4 ± 1.6
